Laboratory results published in patent publication US11279733B2, “Peptide antibiotics” (priority 2017, dated 2022).
Converted amounts (≈) assume the structure as drawn. Where two headings read alike, the source gives them in different places. Positions of bridges follow the written chain, without caps; N, C: chain ends. Non-standard residues stand in square brackets, D forms with d. Residues, ends and D or L forms follow the SMILES beside them. *: point of attachment. Decanoyl(3R-OH) = CCCCCCC[C@@H](O)CC(=O)*; Butanoyl(4-OPh) = O=C(CCCOc1ccccc1)*; dDab = NCC[C@@H](N)C(=O)O; Dab = NCC[C@H](N)C(=O)O

Experiments:
P. aeruginosa ATCC 27853 = details: ATCC 27853
Outline: (§1)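 Mid-log cultures grown in Mueller Hinton broth at 37° C were tested by 2-fold broth microdilution at 5×10^5 CFU/mL final. Compounds were dissolved in water and tested over a final range of 32 to 0.015 μg/mL.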

[1] = system: K. pneumoniae GN_106, PmxR; details: GN 106, PmxR
Outline: as §1

[2] = system: K. pneumoniae ATCC 700603, MDR; details: ATCC 700603
Outline: as §1

[3] = system: K. pneumoniae ATCC BAA-2146, NDM-1 pos; details: ATCC BAA-2146
Outline: as §1

K. pneumoniae ATCC 13883 = details: ATCC 13883
Outline: as §1

A. baumannii ATCC 19606 = details: ATCC 19606
Outline: as §1

E. coli ATCC 25922 = details: ATCC 25922
Outline: as §1

[4] = system: P. aeruginosa GN_043, PmxR
Outline: as §1

[5] = system: K. pneumoniae GN_102 PmxR; details: GN 102 PmxR
Outline: as §1

[6] = system: P. aeruginosa GN_105, PmxR; details: GN 105, PmxR
Outline: as §1

[7] = system: S. aureus ATCC 25923, MSSA; details: ATCC 25923
Outline: as §1

A. baumannii GN_093 PmxR = details: GN 093 PmxR
Outline: as §1

in vitro [8] = details: human
Outline: (§2)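 Viability is measured by resazurin reduction (5 μM, 2 h, 37 °C) after cells seeded at 4000 per well are treated with compound for 24 h.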

in vitro [9] = details: human; remark: listed apart in the source
Outline: as §2

in vitro [10] = details: human; remark: listed apart in the source
Outline: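 HK2 cells were seeded at 2000 per well in DMEM/F12 with 10% FBS and left to attach for 24 h at 37 °C, 5% CO2. They were then exposed for 24 h to 3-fold peptide dilutions starting from 600 μM solutions in quadruplicate. LDH release was read at 450 nm, and CC50 was fitted from dose-response curves.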

Structure (SMILES)	MIC P. aeruginosa ATCC 27853 (P. aeruginosa ATCC 27853) [µg/mL]	MIC K. pneumoniae GN_106, PmxR [1] [µg/mL]	MIC K. pneumoniae ATCC 700603, MDR [2] [µg/mL]	MIC K. pneumoniae ATCC BAA-2146, NDM-1 pos [3] [µg/mL]	MIC K. pneumoniae ATCC 13883 (K. pneumoniae ATCC 13883) [µg/mL]	MIC A. baumannii ATCC 19606 (A. baumannii ATCC 19606) [µg/mL]	MIC E. coli ATCC 25922 (E. coli ATCC 25922) [µg/mL]	MIC P. aeruginosa GN_043, PmxR [4] [µg/mL]	MIC K. pneumoniae GN_102 PmxR [5] [µg/mL]	MIC P. aeruginosa GN_105, PmxR [6] [µg/mL]	MIC S. aureus ATCC 25923, MSSA [7] [µg/mL]	MIC A. baumannii GN_093 PmxR (A. baumannii GN_093 PmxR) [µg/mL]	CC50 at 24 h (in vitro [8]) [µM]	CC50 at 24 h (in vitro [9]) [µM]	CC50 at 24 h (in vitro [10]) [µM]	MIC P. aeruginosa GN_043, PmxR ([4]; polymyxin-resistant) [µg/mL]	MIC P. aeruginosa GN_043, PmxR ([4]; P. aeruginosa GN_043, PmxR) [µg/mL]
CC(C)C[C@@H]1NC(=O)[C@H](CCN)NC(=O)[C@H](CCN)NC(=O)[C@H](CC(C)C)NC(=O)[C@@H](Cc2ccccc2)NC(=O)[C@H](CCN)NC(=O)[C@@H](NC(=O)[C@@H](CCN)NC(=O)CCCOc2ccccc2)CCNC1=O [compound 6529, 4-phenoxybutanoic acid-D-Dab-cyc[L-Dab-L-Dab-D-Phe-L-Leu-L-Dab-L-Dab-L-Leu]] ({Butanoyl(4-OPh)}-[dDab][Dab][Dab][dF]L[Dab][Dab]L; lactam 2-C)	2 (≈ 1.93 µM)	>32	32 (≈ 30.9 µM)	32 (≈ 30.9 µM)	16 (≈ 15.4 µM)	>32	8 (≈ 7.72 µM)	1 (≈ 0.965 µM)	>32	16 (≈ 15.4 µM)	>32	>32	> 300	> 300	199	–	–
CCCCCCC[C@@H](O)CC(=O)N[C@H](CCN)C(=O)N[C@H]1CCNC(=O)[C@H](CC(C)C)NC(=O)[C@H](CCNC(=O)[C@@H](N)CCCNC(=N)N)NC(=O)[C@H](CCN)NC(=O)[C@H](CC(C)C)NC(=O)[C@@H](Cc2ccccc2)NC(=O)[C@H](CCN)NC1=O [compound 6653, 3(R)OH-nC9CO-D-Dab-cyc[L-Dab-L-Dab-D-Phe-L-Leu-L-Dab-L-Dab(L-Arg)-L-Leu]] ({Decanoyl(3R-OH)}-[dDab][Dab][Dab][dF]L[Dab][Dab](Arg)L; lactam 2-C)	4 (≈ 3.33 µM)	16 (≈ 13.3 µM)	8 (≈ 6.66 µM)	8 (≈ 6.66 µM)	8 (≈ 6.66 µM)	4 (≈ 3.33 µM)	16 (≈ 13.3 µM)	–	>32	4 (≈ 3.33 µM)	32 (≈ 26.7 µM)	16 (≈ 13.3 µM)	> 300	> 300	64	2 (≈ 1.67 µM)	–
CCCCCCC[C@@H](O)CC(=O)N[C@@H](CCN)C(=O)N[C@@H]1CCNC(=O)[C@H](CC(C)C)NC(=O)[C@H](CCN)NC(=O)[C@H](CCN)NC(=O)[C@H](CC(C)C)NC(=O)[C@@H](Cc2ccccc2)NC(=O)[C@H](CCN)NC1=O [compound 6658, 3(R)OH-nC9CO-L-Dab-cyc[D-Dab-L-Dab-D-Phe-L-Leu-L-Dab-L-Dab-L-Leu]] ({Decanoyl(3R-OH)}-[Dab][dDab][Dab][dF]L[Dab][Dab]L; lactam 2-C)	32 (≈ 30.6 µM)	>32	>32	>32	>32	>32	>32	–	>32	>32	>32	>32	> 300	> 300	> 300	–	>32
CCCCCCC[C@@H](O)CC(=O)N[C@@H](CCN)C(=O)N[C@@H]1CCNC(=O)[C@H](CC(C)C)NC(=O)[C@H](CCN)NC(=O)[C@H](CCN)NC(=O)[C@H](C)NC(=O)[C@@H](Cc2ccccc2)NC(=O)[C@H](CCN)NC1=O [compound 6660, 3(R)OH-nC9CO-L-Dab-cyc[D-Dab-L-Dab-D-Phe-L-Ala-L-Dab-L-Dab-L-Leu]] ({Decanoyl(3R-OH)}-[Dab][dDab][Dab][dF]A[Dab][Dab]L; lactam 2-C)	>32	>32	>32	>32	>32	>32	>32	–	>32	>32	>32	>32	> 300	> 300	> 300	–	>32
